Test results reported in US20080085881A1, “Stop-and-go oxaliplatin treatment regimens” (priority 2006, published 2008).

Assays:
Format in all cases: in vivo, patients
[1] = test system: advanced colorectal cancer; assay: OPTIMOX1 study: FOLFOX4 until progression (arm A) versus stop-and-go FOLFOX7 (arm B); details: OPTIMOX1, previously untreated advanced colorectal cancer
Procedure: The OPTIMOX1 study examined the effect of oxaliplatin reintroduction in previously untreated patients with advanced colorectal cancer. The details of this study have been recently published by Tournigand et al., J. Clin. Oncol. (January 2006);24:394, and they are incorporated herein by reference. Two different FOLFOX regimens were used in the study: FOLFOX4 and FOLFOX7. The FOLFOX4 regimen comprises oxaliplatin 85 mg/m^2 given as a 2-hour infusion on day 1, leucovorin 200 mg/m^2 given as a 2-hour infusion on days 1 and 2, and 5-FU given on days 1 and 2 as a bolus of 400 mg/m^2 that is followed directly by a 22-hour infusion of 5-FU 600 mg/m^2 on each day. The oxaliplatin infusion on day 1 is given concurrently with leucovorin, and on each day the 5-FU bolus directly follows the 2-hour infusion of leucovorin. FOLFOX7 comprises oxaliplatin 130 mg/m^2 and leucovorin 200 mg/m^2 given concurrently as 2-hour infusions on day 1, followed directly by a 46 hour infusion of 5-FU at 2400 mg/m^2. In some patients, the I-leucovorin isomer was used, but at half the mg/m^2 dosage for dI-leucovorin.
Patients were randomized to either FOLFOX4 every 2 weeks until progression (arm A), or FOLFOX7 for 6 cycles, maintenance with leucovorin-5-FU but without oxaliplatin for 12 […], and reintroduction of FOLFOX7 (arm B). […]

[2] = OPTIMOX1 study: neurotoxicity; details: stopping oxaliplatin after the sixth cycle
From the text: Sensory neurotoxicity can be measured using known techniques and graded using defined criteria. For example, the National Cancer Institute Common Toxicity Criteria (NCI CTC) version 2.0 can be used to grade sensory neuropathy. Using these criteria, an NCI grade of 0 means that there is no change associated with the treatment. NCI grade 1 indicates the loss of deep tendon reflexes or paresthesia (including tingling) not interfering with function. […] NCI Grade 3 indicates sensory loss or paresthesia that interferes with activities of daily living. NCI Grade 4 is reserved for permanent sensory loss that interferes with function.
The OPTIMOX1 study examined the effect of oxaliplatin reintroduction in previously untreated patients with advanced colorectal cancer. The details of this study have been recently published by Tournigand et al., J. Clin. Oncol. (January 2006);24:394, and they are incorporated herein by reference. Two different FOLFOX regimens were used in the study: FOLFOX4 and FOLFOX7. The FOLFOX4 regimen comprises oxaliplatin 85 mg/m^2 given as a 2-hour infusion on day 1, leucovorin 200 mg/m^2 given as a 2-hour infusion on days 1 and 2, and 5-FU given on days 1 and 2 as a bolus of 400 mg/m^2 that is followed directly by a 22-hour infusion of 5-FU 600 mg/m^2 on each day. […]

[3] = test system: advanced colorectal cancer; assay: Retrospective analysis of OPTIMOX1: effect of oxaliplatin reintroduction on overall survival (Cox model, centers grouped by reintroduction class)
Procedure: A retrospective analysis was used to evaluate the effect of oxaliplatin reintroduction on overall survival. The percentage of patients with oxaliplatin reintroduction was calculated in each center regardless of treatment arm, number of patients, or whether reintroduction was per protocol. A Cox model was used to analyze the impact of oxaliplatin reintroduction on survival, after adjustment for all baseline covariates, and using random effects to account for the fact that the percentage of patients with oxaliplatin reintroduction was estimated in each center. Centers were grouped by percentage of oxaliplatin reintroduction into 4 reintroduction classes defined according to the percentage of patients with oxaliplatin reintroduction (0, 1-20, 21-40, and >40). The hazard ratio (HR; adjusted for all baseline covariates) was calculated for each reintroduction class, using centers with no reintroduction (0%) as the reference group.

O=C1[O][Pt]2([NH][C@@H]3CCCC[C@H]3[NH]2)[O]C1=O [oxaliplatin]
prognostic value of oxaliplatin reintroduction for overall survival [1]: independent prognostic factor for improved overall survival
risk of grade 3 or 4 neurotoxicity [2]: reduced risk
Median survival ([3]; >40% reintroduction class): 23 months
impact of percentage of patients with oxaliplatin reintroduction on survival ([3]; after adjustment for all other factors, p<0.001): highly significant impact on survival
impact of reintroduction class on survival ([3]; after adjustment for all other factors, p=0.02): significant impact on survival
Adjusted survival hazard ratio (95% C.I.) ([3]; centers with 0% patients with oxaliplatin reintroduction (reference group)): 1.00 (reference)
Adjusted survival hazard ratio (95% C.I.) ([3]; centers with 1–20% patients with oxaliplatin reintroduction, versus 0% reference): 0.91 (0.56–1.48)
Adjusted survival hazard ratio (95% C.I.) ([3]; centers with 21–40% patients with oxaliplatin reintroduction, versus 0% reference): 0.78 (0.50–1.21)
Adjusted survival hazard ratio (95% C.I.) ([3]; centers with >40% patients with oxaliplatin reintroduction, versus 0% reference): 0.59 (0.38–0.91)
Median survival ([3]; reference group (0% reintroduction)): 15 months
